{"source": "patent US6407288B1", "about": "“Naphthylsalicylanilides as antimicrobial and antiinflammatory agents” (The Research Foundation of State University of New York, priority 2000, dated 2002)", "key": {"[1]": {"tested_on": "Str.pn.R (strain 00-041-0614)", "assay": "Sensitivity of strain to known antibiotics", "assay_type": "cell-based, Streptococcus", "conditions": "sensitive / resistant", "protocol": "This embodiment illustrates the efficacy of the compounds of the present invention against Streptococcus strains. One of the strains, Str.pn.R was obtained from the Children's Hospital in Buffalo (strain 00-041-0614). […] The sensitivity of this strain was tested against several known antibiotics."}, "[2]": {"tested_on": "staphylococcus species R (strain 00-045-1209)", "assay": "Sensitivity of strain to known antibiotics", "assay_type": "cell-based", "conditions": "sensitive / resistant", "protocol": "This embodiment describes the sensitivity of various staphylococcus strains to the compounds of the present invention. The staphylococcus species R is a strain 00-045-1209 from the Children's Hospital in Buffalo. It was isolated from the peritoneal cavity (fluid culture) of an individual. It was coagulase negative. The sensitivity of this strain was tested agaisnt several known antibiotics."}}, "data": [{"compound": "CC[C@H]1OC(=O)[C@H](C)[C@@H](O[C@H]2C[C@@](C)(OC)[C@@H](O)[C@H](C)O2)[C@H](C)[C@@H](O[C@@H]2O[C@H](C)C[C@H](N(C)C)[C@H]2O)[C@](C)(O)C[C@@H](C)C(=O)[C@H](C)[C@@H](O)[C@]1(C)O", "note": "[erythromycin]", "values": [{"measurement": "sensitivity of strain Str.pn.R to known antibiotics", "setting": "[1]", "result": "resistant"}, {"measurement": "sensitivity of staphylococcus species R to known antibiotics", "setting": "[2]", "result": "resistant"}]}]}
